Experimental findings from patent publication US10117853B2, “Cyclic amine derivative and pharmaceutical use thereof” (Toray Industries, Inc., priority 2015, dated 2018) are described below.

Test [1] relates to mouse partial sciatic nerve ligation model. Nature of the test: Mouse partial sciatic nerve ligation model (Seltzer model), von Frey test. The test is classed as in vivo, Crl: CD1 (ICR) mice. The following applies: oral administration seven days after ligation; 0.01 to 10 mg/kg depending on compound, pregabalin 10 mg/kg; 1, 2, 3 hours after administration; versus partial sciatic nerve ligation+distilled water group. As to the method:
Using a partial sciatic nerve ligation model (Seltzer model) in mice by which neuropathic pain can be evaluated, the analgesic action of a cyclic amine derivative (I) or a pharmacologically acceptable salt thereof was investigated.
The mouse partial sciatic nerve ligation model was prepared in accordance with the method of Seltzer et al. (Malmberg et al., Pain, vol. 76, p. 215-222, 1998).
Crl: CD1 (ICR) mice (5 weeks old, male; from CHARLES RIVER LABORATORIES JAPAN, INC.) was anesthetized with sodium pentobarbital (70 mg/kg, intraperitoneal administration). The sciatic nerve at the femoral region of the right hind paw of each mouse was exposed and triply ligated tightly with silk suture of 8-0 (from NATSUME […]., LTD.) under a stereomicroscope so that only half thickness of the nerve was trapped in the ligature. A group of mice thus treated was designated as a partial sciatic nerve ligation group. A group of mice whose sciatic nerve was just exposed and not ligated was designated as a sham surgery group.
Evaluation of neuropathic pain (hereinafter referred to as von Frey test) was performed as follows. Mice were conditioned for at least one hour in an acrylic cage for measurement (from NATSUME […]. LTD.) placed on a wire net. Thereafter, using a filament (from North Coast Medical or neuroscience) which exerted a pressure of 0.16 g, the mice were subjected to mechanical tactile stimulus by applying the filament to the plantar surface of the right hind paw 3 times, each for 3 seconds, with an interval of 3 seconds.
Seven days after the sciatic nerve ligation surgery, the compound of Example 4, 6, 8, 10, 12, 14, 16, 18 or 20 (1 to 10 mg/kg for each of the compounds of Examples 4, 6 and 8, 0.1 to 10 mg/kg for each of the compounds of Examples 16 and 18, 0.01 to 10 mg/kg for each of the compounds of Examples 10, 12 and 14; and 0.1 to 1 mg/kg for the compound of Example 20) or pregabalin as a positive control (10 mg/kg; KEMPROTEC) was dissolved in distilled water and orally administered to mice of the partial sciatic nerve ligation group. The groups of the partial sciatic nerve ligation mice to which the compound of Example 4, 6, 8, 10, 12, 14, 16, 18 or 20 was administered were designated as a “partial sciatic nerve ligation+the compound of Example 4” group; a “partial sciatic nerve ligation+the compound of Example 6” group; a “partial sciatic nerve ligation+the compound of Example 8” group; a “partial sciatic nerve ligation+the compound of Example 10” group; a “partial sciatic nerve ligation+the compound of Example 12” group; a “partial sciatic nerve ligation+the compound of Example 14” group; a “partial sciatic nerve ligation+the compound of Example 16” group; a “partial sciatic nerve ligation+the compound of Example 18” group; and a “partial sciatic nerve ligation+the compound of Example 20” group, respectively. The partial sciatic nerve ligation mouse group to which pregabalin was administered, was designated as a “partial sciatic nerve ligation+pregabalin” group. Also, the partial sciatic nerve ligation mouse group to which distilled water was orally administered, was designated as a “partial sciatic nerve ligation+distilled water” group. The sham surgery mouse group to which distilled water was orally administered was designated as a “sham surgery+distilled water” group.
The von Frey test was carried out before oral administration of a test compound (pre-value), one hour, two hours and three hours after the oral administration of a test compound.
In the figures, the vertical axis represents the total score (mean value±standard error; n=5 to 6 in FIGS. 1 to 9) in the von Frey test. The higher numerical value indicates stronger pain. The horizontal axis represents time (hr) after administration of a test compound. […]

Test [2] relates to fibromyalgia syndrome model rats. Put plainly: Fibromyalgia syndrome model in rats (acidic saline), allodynia by von Frey filament. The test is classed as in vivo, Crl: CD(SD) rat. The following applies: oral administration; Example 6 10 to 100 mg/kg, Example 18 1 to 100 mg/kg, pregabalin 10 mg/kg; 1 and 3 hours after administration; versus acidic saline+distilled water group. From the text:
Using a fibromyalgia syndrome model in rats by which fibromyalgia syndrome can be evaluated, the analgesic action of a cyclic amine derivative (I) or a pharmacologically acceptable salt thereof was investigated.
To prepare a fibromyalgia syndrome model rat (Sluka et al., Journal of Pharmacology and Experimental Therapeutics, vol. 302, p. 1146-1150, 2002; Nagakura et al., Pain, vol. 146, p. 26-33, 2009; Sluka et al., Pain, vol. 146, p. 3-4, 2009), which is generally employed widely in basic research for fibromyalgia syndrome, acidic saline (100 μL) adjusted to pH4.0 was intramuscularly injected to the gastrocnemius muscle of the right hind paw of Crl: CD(SD) rat (6 to 7 weeks old, male; from CHARLES RIVER LABORATORIES JAPAN, INC.) under continuous inhalation anesthesia with isoflurane, twice (once in each day of Day 1 and Day 6, wherein Day 1 was the date on which the acidic saline was initially administrated). The rats thus prepared were raised in a breeding room controlled at an indoor temperature of 21 to 25° C. and an indoor humidity of 40 to 70% under the conditions of voluntary intake of food and water. In the same manner, rats to which physiological saline in place of acidic saline was intramuscularly injected were raised. The rats thus raised and not afflicted with fibromyalgia syndrome (“physiological saline+distilled water” group in FIG. 10 or 11) were also used in the experiment.
Seven days after the initial administration of acidic saline, allodynia in each rat was measured. […]
The compounds of Examples 6 and 18 (10 to 100 mg/kg for the compound of Example 6; 1 to 100 mg/kg for the compound of Example 18) were separately dissolved in distilled water and orally administered to fibromyalgia model rats (“acidic saline+the compound of Example 6” in FIG. 10 and “acidic saline+the compound of Example 18” in FIG. 11). […] In one hour and three hours after the oral administration, allodynia in individual rats was measured to evaluate an analgesic action. […]

Structures can show the parent of a compound that is named as a salt.

`CCCCCCCCOC(=O)CCn1ccnc1CCC(=O)N1CC[C@H](N(C)C)C1` [Example 8, n-octyl (S)-3-(2-(3-(3-(dimethylamino)pyrrolidin-1-yl)-3-oxopropyl)-1H-imidazol-1-yl)propanoate hydrochloride]: the “analgesic action, total score in the von Frey test” value (shortened to “analgesic action, total score”) in test [1] is on record as “statistically significant analgesic action”.
Same read-out and setting: as for `CCCCCOC(=O)Cn1ccnc1CCC(=O)N1CCC(N2CCOCC2)CC1` [Example 14, n-pentyl 2-(2-(3-(4-morpholinopiperidin-1-yl)-3-oxopropyl)-1H-imidazol-1-yl)acetate hydrochloride], the entry is “statistically significant analgesic action”.
Turning to `CCCCCCOC(=O)Cn1ccnc1CCC(=O)N1CCC(N2CCOCC2)CC1` [Example 16, n-hexyl 2-(2-(3-(4-morpholinopiperidin-1-yl)-3-oxopropyl)-1H-imidazol-1-yl)acetate hydrochloride], the “analgesic action, total score” value in test [1] is on record as “statistically significant analgesic action”.
For the molecule `CCCCCCCOC(=O)CCn1ccnc1CCC(=O)N1CC[C@H](N(C)C)C1` [Example 6, n-heptyl (S)-3-(2-(3-(3-(dimethylamino)pyrrolidin-1-yl)-3-oxopropyl)-1H-imidazol-1-yl)propanote hydrochloride], in test [1], the “analgesic action, total score” value is on record as “statistically significant analgesic action”. In addition, the “allodynia, 50% response threshold (mean value of the right hind paw and the left hind paw)” value (“allodynia, 50% response threshold” for short) in test [2] is given as “statistically significantly improved”.
Take `CC(C)C[C@H](CN)CC(=O)O` [pregabalin, reference compound]: the “analgesic action, total score” value in test [1] is recorded as “statistically significant analgesic action”. In addition, in test [2], the “allodynia, 50% response threshold” value is reported as “statistically significantly improved”.
For `CCCCCCCCOC(=O)Cn1ccnc1CCC(=O)N1CCC(N2CCOCC2)CC1` [Example 20, n-octyl 2-(2-(3-(4-morpholinopiperidin-1-yl)-3-oxopropyl)-1H-imidazol-1-yl)acetate hydrochloride], the “analgesic action, total score” value in test [1] was “statistically significant analgesic action”.
For `CCCCCCCOC(=O)Cn1ccnc1CCC(=O)N1CCC(N2CCOCC2)CC1` [Example 18, n-heptyl 2-(2-(3-(4-morpholinopiperidin-1-yl)-3-oxopropyl)-1H-imidazol-1-yl)acetate hydrochloride], the “analgesic action, total score” value in test [1] is listed as “statistically significant analgesic action”. The “allodynia, 50% response threshold” value in test [2] was “statistically significantly improved”.
For the molecule `CCCCCCOC(=O)CCn1ccnc1CCC(=O)N1CC[C@H](N(C)C)C1` [Example 4, n-hexyl (S)-3-(2-(3-(3-(dimethylamino)pyrrolidin-1-yl)-3-oxopropyl)-1H-imidazol-1-yl)propanoate hydrochloride], the “analgesic action, total score” value in test [1] is recorded as “statistically significant analgesic action”.
Still for that read-out and setting: as for `CCCOC(=O)Cn1ccnc1CCC(=O)N1CCC(N2CCOCC2)CC1` [Example 10, n-propyl 2-(2-(3-(4-morpholinopiperidin-1-yl)-3-oxopropyl)-1H-imidazol-1-yl)acetate hydrochloride], the entry is “statistically significant analgesic action”; as for `CCCCOC(=O)Cn1ccnc1CCC(=O)N1CCC(N2CCOCC2)CC1` [Example 12, n-butyl 2-(2-(3-(4-morpholinopiperidin-1-yl)-3-oxopropyl)-1H-imidazol-1-yl)acetate hydrochloride], “statistically significant analgesic action”.
